The text below walks through data of PubChem BioAssay (NCI).

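Following 48 hours of exposure in 96-well plates, responses at five concentrations were used to interpolate endpoints linearly. GI50 marks 50% less growth. TGI: total growth inhibition.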

Test systems include BT-549 breast; HCT-116 colon; A549 NSCLC; NCI-H522 lung; T-47D breast; NCI-H460 lung; SNB-19 CNS; K-562 leukemia; LOX IMVI melanoma; HOP-62 NSCLC.
What all share (experiment): DTP human tumour cell line panel, 48 h

A word on the GI50: it is the concentration that inhibits growth by half. One may read the TGI as the concentration giving total growth inhibition.

Consider `CN(C)CCCNC(=O)c1ccc2oc3cc4ccccc4c(=O)n3c2c1`, for which the GI50 was 24.2 µM in the assay with BT-549 breast; 30.8 µM in the assay with HCT-116 colon; 27.6 µM in the assay on A549 NSCLC; 17.4 µM in the assay with NCI-H522 lung; greater than 50 µM in the assay on T-47D breast; 16.6 µM in the assay with NCI-H460 lung. Further, the GI50 in the assay on SNB-19 CNS was greater than 50 µM; in the assay on K-562 leukemia, 33.8 µM; with LOX IMVI melanoma it was 10.8 µM; in the assay on HOP-62 NSCLC, greater than 50 µM. For the same compound, the total growth inhibition concentration (TGI) with BT-549 breast, in the assay on HCT-116 colon, in the assay on A549 NSCLC, with NCI-H522 lung, in the assay on T-47D breast and in the assay with NCI-H460 lung was greater than 50 µM each time. The total growth inhibition concentration (TGI) with SNB-19 CNS was greater than 50 µM; in the assay with K-562 leukemia it was greater than 50 µM; in the assay with LOX IMVI melanoma, 27 µM; with HOP-62 NSCLC it was greater than 50 µM.
For `Fc1ccc(-c2nn3c(CNc4ccccc4)nnc3s2)cc1`, the GI50 in the assay on BT-549 breast is 39.1 µM; with HCT-116 colon, 26.5 µM; in the assay with A549 NSCLC it was 36.7 µM; in the assay with NCI-H522 lung, 34.5 µM; in the assay on T-47D breast, 29.6 µM; with NCI-H460 lung it was 52.3 µM. Moreover, the GI50 with SNB-19 CNS was 33.6 µM; in the assay with K-562 leukemia, 41.6 µM; in the assay on LOX IMVI melanoma, 29.4 µM; with HOP-62 NSCLC, 33.8 µM. The concentration for total growth inhibition (TGI) in the assay with BT-549 breast, with HCT-116 colon, in the assay with A549 NSCLC, with NCI-H522 lung, with T-47D breast and with NCI-H460 lung was greater than 100 µM throughout. For the same compound, the TGI with SNB-19 CNS is greater than 100 µM; with K-562 leukemia, greater than 100 µM; with LOX IMVI melanoma it was 96.7 µM; in the assay with HOP-62 NSCLC, greater than 100 µM.
For the compound `NC(=O)/C(=C\c1ccncc1)c1cccc2ccccc12`, the concentration for total growth inhibition (TGI) in the assay on BT-549 breast, in the assay with HCT-116 colon, with A549 NSCLC, with NCI-H522 lung, in the assay with T-47D breast and in the assay with NCI-H460 lung was greater than 100 µM in each case. Also, the TGI with SNB-19 CNS, in the assay on K-562 leukemia, in the assay with LOX IMVI melanoma and in the assay on HOP-62 NSCLC was greater than 100 µM in each case.
`CC(C)CCSC1=CC(=O)c2ccccc2C1=O`: the GI50 with BT-549 breast is 1.33 µM; in the assay with HCT-116 colon, 1.42 µM; with A549 NSCLC, 32.6 µM; with NCI-H522 lung, 1.6 µM; in the assay on T-47D breast, 1.19 µM; with NCI-H460 lung it was 16.7 µM. Besides, the GI50 with SNB-19 CNS is 30 µM; with K-562 leukemia, 0.313 µM; in the assay with LOX IMVI melanoma it was 3.56 µM; with HOP-62 NSCLC, 23.5 µM. Moreover, the TGI with BT-549 breast was 21.3 µM; in the assay with HCT-116 colon, 2.89 µM; in the assay on A549 NSCLC, greater than 82.8 µM; in the assay on NCI-H522 lung, 6.38 µM; in the assay with T-47D breast, 3.51 µM; in the assay on NCI-H460 lung it was 42.9 µM. In addition, the TGI with SNB-19 CNS is greater than 100 µM; in the assay on K-562 leukemia, 1.2 µM; in the assay with LOX IMVI melanoma, 15.6 µM; in the assay with HOP-62 NSCLC, greater than 59.1 µM.
With `COc1ccccc1-c1cc(/C=C2\C(=O)Nc3ncc(Br)cc32)cc(Br)c1O`, the GI50 in the assay on BT-549 breast was 14.2 µM; with HCT-116 colon, 10.2 µM; in the assay with A549 NSCLC, 11.8 µM; in the assay on NCI-H522 lung, 6.1 µM; in the assay on T-47D breast, 10.6 µM; with NCI-H460 lung, 11.6 µM. For the same compound, the GI50 is 12.5 µM in the assay on SNB-19 CNS, 9.76 µM with K-562 leukemia, 10.5 µM in the assay on LOX IMVI melanoma and 22.7 µM in the assay with HOP-62 NSCLC. The total growth inhibition concentration (TGI) in the assay with BT-549 breast is greater than 25 µM; with HCT-116 colon, greater than 25 µM; with A549 NSCLC, greater than 25 µM; with NCI-H522 lung, greater than 23.3 µM; in the assay with T-47D breast, greater than 25 µM; in the assay on NCI-H460 lung, greater than 25 µM. Besides, the TGI in the assay with SNB-19 CNS, in the assay on K-562 leukemia, in the assay on LOX IMVI melanoma and in the assay on HOP-62 NSCLC was greater than 25 µM throughout.
With `COC(=O)C(Cc1cnc[nH]1)NC(=O)CNC(=O)CCCn1c(=O)c2c3ccccc3n(C)c2n2nnc(-c3ccccc3)c12` (stereo not given), the GI50 in the assay with BT-549 breast, in the assay on HCT-116 colon, in the assay with A549 NSCLC, with NCI-H522 lung, in the assay on T-47D breast and in the assay on NCI-H460 lung was greater than 100 µM in each case. Moreover, the GI50 in the assay with SNB-19 CNS, in the assay with K-562 leukemia, in the assay with LOX IMVI melanoma and with HOP-62 NSCLC was greater than 100 µM each time. Besides, the total growth inhibition concentration (TGI) in the assay with BT-549 breast, in the assay with HCT-116 colon, in the assay on A549 NSCLC, with NCI-H522 lung, in the assay with T-47D breast and with NCI-H460 lung was greater than 100 µM in each case. Besides, the TGI in the assay with SNB-19 CNS, in the assay on K-562 leukemia, in the assay on LOX IMVI melanoma and with HOP-62 NSCLC was greater than 100 µM throughout.
On to `Cc1nc2ccccn2c1NC(=O)NNC(=S)Nc1ccc(Br)cc1`, for which the GI50 with BT-549 breast was 42.8 µM; in the assay with HCT-116 colon, 22.9 µM; in the assay on A549 NSCLC it was 71.6 µM; with NCI-H522 lung it was 30.1 µM; in the assay on T-47D breast, 48.2 µM; in the assay on NCI-H460 lung it was 34.1 µM. Also, the GI50 with SNB-19 CNS is 39.1 µM; in the assay with K-562 leukemia it was 21.8 µM; in the assay with LOX IMVI melanoma it was 24 µM; with HOP-62 NSCLC, 35.2 µM. Moreover, the concentration for total growth inhibition (TGI) with BT-549 breast is greater than 100 µM; in the assay with HCT-116 colon it was 62.9 µM; in the assay on A549 NSCLC it was greater than 100 µM; in the assay with NCI-H522 lung, 79.1 µM; with T-47D breast, greater than 100 µM; with NCI-H460 lung, greater than 100 µM. The TGI with SNB-19 CNS is greater than 100 µM; in the assay on K-562 leukemia, 54.6 µM; in the assay with LOX IMVI melanoma it was 67.3 µM; in the assay with HOP-62 NSCLC, greater than 100 µM.
